{"source": "patent EP0103895A2", "about": "“Novel hydroxylamine derivatives, production and use thereof” (MEIJI SEIKA KABUSHIKI KAISHA, priority 1982, dated 1984)", "key": {"[1]": {"test_system": "Liver fluke; Fasciola hepatica (F. hepatica)", "test": "Test of anthelmintic effect against rat infected experimentally with liver fluke (Test Examples A11, B11, C11, D11)", "type": "in vivo"}, "[2]": {"test_system": "fowl roundworm (As. galli)", "test": "Anthelmintic test in chickens artificially infected with fowl roundworm, compound added to feed, E.P.G. and worm count up to 21st day (Test Examples A2, B2, C2, D2)", "type": "in vivo, Ascaridia galli", "conditions": "Ascaridia galli, po, 504 h, chickens, worm count on 21st day, one value per chicken, read-out: Anthelmintic effect"}, "[3]": {"test_system": "fowl roundworm (Ascaridia galli)", "test": "Anthelmintic test in chickens artificially infected with fowl roundworm, single oral dose in gelatin capsule, worm bodies counted within 48 hours (Test Examples A1, B1, C1, D1)", "type": "in vivo", "conditions": "Ascaridia galli, po, 48 h, chickens, one value per chicken (No.1-3), read-out: Anthelmintic effect after 48 hours", "how_it_was_run": "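Groups of three chickens with confirmed Ascaridia galli infection given a single oral dose in gelatin capsule (10 and 20 mg/kg in A1 and B1; 30 and 50 mg/kg in C1; 15 and 30 mg/kg in D1). Worms expelled over 48 h and those remaining in the gut at necropsy counted to give anthelmintic percentage.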"}, "[4]": {"test_system": "swine Oesophagostomum (Oesophagostomum dentatum)", "test": "Test of anthelmintic effect against swine Oesophagostomum in naturally infected pigs, E.P.G. on 7th day (Test Examples A8, B8, C8, D8)", "type": "in vivo", "conditions": "pigs", "method": "Six pigs infected with swine Oesophagostomum (naturally infected pigs) were employed by grouping them into groups each of two pigs.\nAs a control, only gelatin capsules were administered orally to the two pigs.\nBefore administration and on the 7th day after administration, fecal matter testing was conducted to calculate the E.P.G., and the anthelmintic effect was judged by the changing of the E.P.G. to negative."}, "[5]": {"test_system": "stomach worm (Haemonchus controtus)", "test": "Anthelmintic test against cow stomach worm in naturally infected cows, E.P.G. on 7th day (Test Examples A6, B6, C6, D6)", "type": "in vivo", "conditions": "cows"}, "[6]": {"test_system": "canine filaria; Dirofilaria immitis", "test": "Test of anthelmintic effect against canine filaria in naturally infected dogs, subcutaneous injection, microfilaria in blood and adult filaria at autopsy (Test Examples A10, B10, C10, D10)", "type": "in vivo", "conditions": "for inhibition in vivo at 30 mg/kg: Dirofilaria immitis, sc, 240 h"}}, "note": "Values joined by “and” are separate entries in the source; they are usually repeats but may differ in a detail not shown here. Identical values can stand only once. Like-named read-outs stand apart in the source and are kept apart here.", "data": [{"smiles": "C=CCN(OC)C(C)=O", "note": "[Compound B1, N-allyl-N-acetyl-O-methylhydroxylamine]", "values": [{"measurement": "Condition of fluke body", "setting": "[1]; rat, 50 mg/Kg x 5", "value": "dead"}, {"measurement": "Presence or absence of fluke egg in fecal matter On 21st day after the last administration", "setting": "[1]; rat, 50 mg/Kg x 5", "value": "-"}, {"measurement": "anthelmintic effect", "setting": "[1]; rats, five administrations in a dose of 50 mg/Kg each", "value": "marked antihelmintic effect"}, {"measurement": "inhibition in vivo at 20 ppm", "setting": "[2]; 20 ppm added to feed", "value": "80 to 90", "unit": "%"}, {"measurement": "inhibition in vivo at 50 ppm", "setting": "[2]; 50 ppm added to feed", "value": 100, "unit": "%"}, {"measurement": "inhibition in vivo at 30 mg/kg", "setting": "[3]; 30 mg/Kg orally in gelatin capsule", "value": 100, "unit": "%"}, {"measurement": "inhibition in vivo at 50 mg/kg", "setting": "[3]; 50 mg/Kg orally in gelatin capsule", "value": 100, "unit": "%"}, {"measurement": "Change of E.P.G. Before administration", "setting": "[4]; 20 mg/Kg orally once, baseline, one value per pig, 20 mg/kg", "value": "1,200 E.P.G. and 2,600 E.P.G."}, {"measurement": "Change of E.P.G. 7th day", "setting": "[4]; 20 mg/Kg orally once, one value per pig", "value": 0, "unit": "E.P.G."}, {"measurement": "anthelmintic effect", "setting": "[4]; one administration of 20 mg/Kg", "value": "marked anthelmintic effect"}, {"measurement": "Change of E.P.G. Before administration", "setting": "[5]; 20 mg/Kg orally once, baseline, one value per cow, 20 mg/kg", "value": "2,500 E.P.G. and 3,300 E.P.G."}, {"measurement": "Change of E.P.G. 7th day", "setting": "[5]; 20 mg/Kg orally once, one value per cow", "value": 0, "unit": "E.P.G."}, {"measurement": "anthelmintic effect", "setting": "[5]; one administration of 20 mg/Kg", "value": "marked anthelmintic effect"}, {"measurement": "inhibition in vivo at 30 mg/kg", "setting": "[6]; dog, 30 mg/Kg x 3, subcutaneous injection, read-out: Effect on adult filaria: Percent of worms killed", "value": 58, "unit": "%"}, {"measurement": "inhibition in vivo at 30 mg/kg", "setting": "[6]; dogs, administration of 30 mg/Kg repeated three times, given as about 50% or more, read-out: anthelmintic effect against adult filaria", "value": "≥ 50", "unit": "%"}, {"measurement": "Number of microfilaria/20 µl on 10th day after the last administration", "setting": "[6]; dog, 30 mg/Kg x 3, subcutaneous injection, suspension in 1% Tween 80", "value": "0 /20 µl"}, {"measurement": "Effect on adult filaria: Number of worms killed/ Total parasite", "setting": "[6]; dog, 30 mg/Kg x 3, subcutaneous injection, 30 mg/kg", "value": "8/15 and 12/21"}, {"measurement": "anthelmintic effect against microfilaria (mf)", "setting": "[6]; dogs, administration of 30 mg/Kg repeated three times", "value": "marked anthelmintic effect"}]}]}
